Patent publication US10487088B2, “Tricyclic compound serving as immunomodulator” (Chia Tai Tianqing Pharmaceutical Group Co., Ltd., priority 2016, dated 2019)

Each compound was assayed against T1, recombinant human IDO1 enzyme (Homo sapiens, UniProt P14902) (assay: In vitro hIDO1 enzyme activity test (NFK Green fluorescence)). Settings: recombinant human IDO1, L-tryptophan substrate, pH 6.5.
T1 construct: purchased NTRC NTRC-hlDO-10K
Assay type: biochemical
Protocol: The change of NFK production was detected by using the NFK Green™ fluorescent molecule, which is the metabolite of the IDO1 enzyme, and the IC50 value of the compound was used as an index, to evaluate the inhibitory effect of the compound on the recombinant human IDO1 enzyme.
IDO1 Enzyme Activity Assay Kit, NTRC # NTRC-hlDO-10K;
The compound was diluted to 1 mM in DMSO, and then diluted 3-fold in duplicate wells, with 10 gradients. 48 μL of 50 mM phosphate buffer (pH 6.5) was transferred to the compound plate via Bravo automated liquid handling platform. 2 μL of the diluted solution of the compound in DMSO was then added and mixed, followed by transferring 10 μL therein to an enzyme reaction plate.
The IDO1 enzyme was diluted to 20 nM in the reaction buffer (50 mM phosphate buffer pH 6.5, 0.1% Tween-20, 2% glycerol, 20 mM ascorbic acid, 20 μg/mL catalase and 20 μM methylene blue), and 20 μL of the solution was transferred to an enzyme reaction plate and incubated at 23° C. for 30 min. The reaction was started by adding 10 μL of 400 μM L-type tryptophan substrate and incubated at 23° C. for 90 min. 10 μL of NFK Green™ fluorescent dye was added, and the plate was sealed with the sealing film, incubated at 37° C. for 4 h, and then read on Envision Multimode Plate Reader (Ex 400 nm/Em 510 nm).
The control wells with the IDO1 enzyme but no compound was set as 0% inhibition, and the control wells without the IDO1 enzyme was set as 100% inhibition, and the IC50 value of the compound was calculated by analyzing the data with XLFit 5.

T1 sequence (P14902 whole entry): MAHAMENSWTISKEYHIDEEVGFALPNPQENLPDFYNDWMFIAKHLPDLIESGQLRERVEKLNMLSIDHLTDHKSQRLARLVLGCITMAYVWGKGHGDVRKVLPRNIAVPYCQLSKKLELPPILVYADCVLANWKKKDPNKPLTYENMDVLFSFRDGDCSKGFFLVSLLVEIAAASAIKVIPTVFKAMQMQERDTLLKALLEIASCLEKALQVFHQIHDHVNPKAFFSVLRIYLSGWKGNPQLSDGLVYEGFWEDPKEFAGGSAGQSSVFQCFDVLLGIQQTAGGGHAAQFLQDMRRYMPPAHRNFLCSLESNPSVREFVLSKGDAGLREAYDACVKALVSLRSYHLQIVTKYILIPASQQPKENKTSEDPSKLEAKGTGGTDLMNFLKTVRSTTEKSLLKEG

| Compound | IC50 [µM] |
| --- | --- |
| OC(CC1c2nn(C(F)(F)F)cc2-c2cncn21)C1CCCCC1 (single isomer, unassigned) [Example 1, 1-cyclohexyl-2-(2-(trifluoromethyl)-2,8-dihydroimidazo[1′,5′:1,5]pyrrolo[3,4-c]pyrazol-8-yl)ethanol] | > 10 |
| OC(CC1c2nn(C(F)(F)F)cc2-c2cncn21)C1CCCCC1 (single isomer, unassigned) [Example 2, 1-cyclohexyl-2-(2-(trifluoromethyl)-2,8-dihydroimidazo[1′,5′:1,5]pyrrolo[3,4-c]pyrazol-8-yl)ethanol] | > 10 |
| OC(CC1c2nn(C(F)(F)F)cc2-c2cncn21)C1CCCCC1 (single isomer, unassigned) [Example 3, 1-cyclohexyl-2-(2-(trifluoromethyl)-2,8-dihydroimidazo[1′,5′:1,5]pyrrolo[3,4-c]pyrazol-8-yl)ethanol] | > 10 |
| Fc1cc2c(s1)C(CCC1CCCCC1)n1cncc1-2 (single isomer, unassigned) [Example 19, 8-(2-cyclohexylethyl)-2-fluoro-8H-thieno[3′,2′:3,4]pyrrolo[1,2-c]imidazole] | > 10 |
| Fc1cc2c(s1)C(CCC1CCCCC1)n1cncc1-2 (single isomer, unassigned) [Example 20, 8-(2-cyclohexylethyl)-2-fluoro-8H-thieno[3′,2′:3,4]pyrrolo[1,2-c]imidazole] | 0.586 |
| FC1(F)CCC(CCC2c3sccc3-c3cncn32)CC1 (single isomer, unassigned) [Example 21, 8-(2-(4,4-difluorocyclohexyl)ethyl)-8H-thieno[3′,2′:3,4]pyrrolo[1,2-c]imidazole] | 9.16 |
| O=C1CC[C@H]2C[C@@H]([C@@H](O)CC3c4sccc4-c4cncn43)CCN12 (single isomer, unassigned) [Example 26] | > 10 |
| O=C1CC[C@H]2C[C@@H]([C@@H](O)CC3c4sccc4-c4cncn43)CCN12 (single isomer, unassigned) [Example 27] | 0.869 |
| OCC1(C2c3sccc3-c3cncn32)CCCCC1 (single isomer, unassigned) [Example 43, [1-(8H-thieno[3,4]pyrrolo[1,5-a]imidazol-8-yl)cyclohexyl]methanol] | > 10 |
| c1cc2c(s1)C(C13CCC(CC1)CC3)n1cncc1-2 (single isomer, unassigned) [Example 48, 8-(4-bicyclo[2.2.2]octyl)-8H-thieno[3,4]pyrrolo[1,5-a]imidazole] | 0.518 |
| c1cc2c(s1)C(C13CCC(CC1)CC3)n1cncc1-2 (single isomer, unassigned) [Example 49, 8-(4-bicyclo[2.2.2]octyl)-8H-thieno[3,4]pyrrolo[1,5-a]imidazole] | > 10 |
| c1ccc2c(c1)CCC(C1c3sccc3-c3cncn31)C2 (single isomer, unassigned) [Example 54, 8-tetrahydronaphthalen-2-yl-8H-thieno[3,4]pyrrolo[1,5-a]imidazole] | > 10 |
| c1ccc2c(c1)CCC(C1c3sccc3-c3cncn31)C2 (single isomer, unassigned) [Example 55, 8-tetrahydronaphthalen-2-yl-8H-thieno[3,4]pyrrolo[1,5-a]imidazole] | > 10 |
| c1ccc2c(c1)CCC(C1c3sccc3-c3cncn31)C2 (single isomer, unassigned) [Example 56, 8-tetrahydronaphthalen-2-yl-8H-thieno[3,4]pyrrolo[1,5-a]imidazole] | 0.851 |
| c1ccc2c(c1)CCC(C1c3sccc3-c3cncn31)C2 (single isomer, unassigned) [Example 57, 8-tetrahydronaphthalen-2-yl-8H-thieno[3,4]pyrrolo[1,5-a]imidazole] | 0.886 |
| OC1CC(C2c3sccc3-c3cncn32)C1 (single isomer, unassigned) [Example 58, 3-(8H-thieno[3,4]pyrrolo[1,5-a]imidazol-8-yl)cyclobutanol] | 2.1 |
| OC1CC(C2c3sccc3-c3cncn32)C1 (single isomer, unassigned) [Example 59, 3-(8H-thieno[3,4]pyrrolo[1,5-a]imidazol-8-yl)cyclobutanol] | > 10 |

Next, values leading:

| IC50 [µM] | Compound |
| --- | --- |
| 5.03 | OC(CC1c2sccc2-c2cncn21)C1CCCCC1 (single isomer, unassigned) [Example 5, cyclohexyl-2-(8H-thieno[3′,2′:3,4]pyrrolo[1,2-c]imidazol-8-yl)ethanol] |
| 9.67 | OC(CC1c2sccc2-c2cncn21)C1CCCCC1 (single isomer, unassigned) [Example 6, cyclohexyl-2-(8H-thieno[3′,2′:3,4]pyrrolo[1,2-c]imidazol-8-yl)ethanol] |
| 0.0648 | OC(CC1c2sccc2-c2cncn21)C1CCCCC1 (single isomer, unassigned) [Example 8, cyclohexyl-2-(8H-thieno[3′,2′:3,4]pyrrolo[1,2-c]imidazol-8-yl)ethanol] |
| > 10 | c1cc2c(s1)C(C1CCCCC1)n1cncc1-2 (single isomer, unassigned) [Example 13, 8-cyclohexyl-8H-thieno[3,4]pyrrolo[1,5-a]imidazole] |
| 5.22 | c1cc2c(s1)C(CC1CCCCC1)n1cncc1-2 (single isomer, unassigned) [Example 15, 8-(cyclohexylmethyl)-8H-thieno[3,4]pyrrolo[1,5-a]imidazole] |
| 0.338 | c1cc2c(s1)C(COC1CCCCC1)n1cncc1-2 (single isomer, unassigned) [Example 17, 8-((cyclohexyloxy)methyl)-8H-thieno[3′,2′:3,4]pyrrolo[1,2-c]imidazole] |
| > 10 | c1cc2c(s1)C(COC1CCCCC1)n1cncc1-2 (single isomer, unassigned) [Example 18, 8-((cyclohexyloxy)methyl)-8H-thieno[3′,2′:3,4]pyrrolo[1,2-c]imidazole] |
| > 10 | c1cc2c(s1)C(C1CCCOC1)n1cncc1-2 (single isomer, unassigned) [Example 33, 8-(tetrahydro-2H-pyran-3-yl)-8H-thieno[3′,2′:3,4]pyrrolo[1,2-c]imidazole] |
| > 10 | c1cc2c(s1)C(C1CCCOC1)n1cncc1-2 (single isomer, unassigned) [Example 34, 8-(tetrahydro-2H-pyran-3-yl)-8H-thieno[3′,2′:3,4]pyrrolo[1,2-c]imidazole] |
| 2.81 | c1cc2c(s1)C(C1CCCOC1)n1cncc1-2 (single isomer, unassigned) [Example 35, 8-(tetrahydro-2H-pyran-3-yl)-8H-thieno[3′,2′:3,4]pyrrolo[1,2-c]imidazole] |
| 2.43 | c1cc2c(s1)C(C1CCCOC1)n1cncc1-2 (single isomer, unassigned) [Example 36, 8-(tetrahydro-2H-pyran-3-yl)-8H-thieno[3′,2′:3,4]pyrrolo[1,2-c]imidazole] |
| 2.4 | c1cc2c(s1)C(C1CCOCC1)n1cncc1-2 (single isomer, unassigned) [Example 37, 8-tetrahydropyran-4-8H-thieno[3,4]pyrrolo[1,5-a]imidazole] |
| > 10 | c1cc2c(s1)C(C1CCOCC1)n1cncc1-2 (single isomer, unassigned) [Example 38, 8-tetrahydropyran-4-8H-thieno[3,4]pyrrolo[1,5-a]imidazole] |
| > 10 | FC1(F)CCC([C@@H]2c3sccc3-c3cncn32)CC1 (single isomer, unassigned) [Example 40] |
| > 10 | c1cc2c(s1)C(C1CCC3(CC1)CC3)n1cncc1-2 (single isomer, unassigned) [Example 44, 8-spiro[2.5]octan-6-yl-8H-thieno[3,4]pyrrolo[1,5-a]imidazole] |
| 3.83 | c1cc2c(s1)C(C1CCC3(CC1)CC3)n1cncc1-2 (single isomer, unassigned) [Example 45, 8-spiro[2.5]octan-6-yl-8H-thieno[3,4]pyrrolo[1,5-a]imidazole] |
| > 10 | OC1CCCCC1C1c2sccc2-c2cncn21 (single isomer, unassigned) [Example 50, 2-(8H-thieno[3,4]pyrrolo[1,5-a]imidazol-8-yl)cyclohexanol] |
| > 10 | OC1CCCCC1C1c2sccc2-c2cncn21 (single isomer, unassigned) [Example 51, 2-(8H-thieno[3,4]pyrrolo[1,5-a]imidazol-8-yl)cyclohexanol] |
| 0.676 | OC1CCCCC1C1c2sccc2-c2cncn21 (single isomer, unassigned) [Example 52, 2-(8H-thieno[3,4]pyrrolo[1,5-a]imidazol-8-yl)cyclohexanol] |
| > 10 | OC1CC(C2c3sccc3-c3cncn32)C1 (single isomer, unassigned) [Example 60, 3-(8H-thieno[3,4]pyrrolo[1,5-a]imidazol-8-yl)cyclobutanol] |
| 1.2 | OC1CC(C2c3sccc3-c3cncn32)C1 (single isomer, unassigned) [Example 61, 3-(8H-thieno[3,4]pyrrolo[1,5-a]imidazol-8-yl)cyclobutanol] |
| > 10 | OC1CCCC(C2c3sccc3-c3cncn32)C1 (single isomer, unassigned) [Example 64, 3-(8H-thieno[3′,2′:3,4]pyrrolo[1,2-c]imidazol-8-yl)cyclohexanol] |
